In PMC11995402 (ACS infectious diseases, 2025):
“Also recorded” adds a separate entry of the source. Where two headings read alike, the source gives them in different places.

Columns and labels:
HepG2 cells = experiment: HepG2 MTT viability assay; conditions: for CC50: read-out: HEPG2 cells CC50 μM (95% CI) 24 h, MTT viability, 24 h
T. muris = experiment: adult whipworm whole-worm motility inhibition assay; type: cell-based, Trichuris muris; conditions: for worm motility inhibition, SAR statement (in words): T. muris, 50 μM, 48 h (Figures 3-5); for motility inhibition / worm motility inhibition (in words): adult T. muris; for motility inhibition: 30 μM; for worm motility inhibition (in words): 30 μM (Figure 1)
A. ceylanicum = experiment: adult hookworm whole-worm motility inhibition assay; type: cell-based, Ancylostoma ceylanicum; conditions: for worm motility inhibition, SAR statement (in words): A. ceylanicum, 30 μM, 48 h (Figures 3-5); for IC50: motility
CK2α/PI3Kγ = conditions: cited from earlier work
in vitro = conditions: dog
MDR1 (P-gp) = experiment: in vitro; conditions: dog, MDCK-MDR1
[1] = read-out: T. muris IC50 μM (95% CI) 24 h, motility, 24 h
[2] = read-out: T. muris IC50 μM (95% CI) 48 h, motility, 48 h
[3] = read-out: A. ceylanicum IC50 μM (95% CI) 24 h, 24 h
[4] = read-out: A. ceylanicum IC50 μM (95% CI) 48 h, 48 h

With CN1CCCN(C(=O)c2cccc(-c3ccc(C=C4C(=O)Nc5ccccc54)o3)c2)CC1 [Compound 11] the CC50 (HepG2 cells) was 22.2 µM, the “worm motility inhibition, SAR statement (in words)” value (T. muris) was “neither an increase nor decrease to activity” and the IC50 (T. muris; [1]) was > 90 µM. For the same molecule, the IC50 (T. muris; [2]) was > 90 µM, the “worm motility inhibition, SAR statement (in words)” value (A. ceylanicum) was “neither an increase nor decrease to activity” and the IC50 (A. ceylanicum; [3]) was 25.2 µM. For the same molecule, the IC50 (A. ceylanicum; [4]) was 8.8 µM.

For ivermectin, the IC50 (T. muris; [1]) was > 300 µM and the IC50 (T. muris; [2]) was 89.6 µM.

CCCOc1ccc(/C=C2\SC(=O)NC2=O)cc1 [SMI-16a] showed a motility inhibition (T. muris; @48 h (Figure 1B)) of 57%.

With CCCSc1ccc2nc(NC(=O)OC)[nH]c2c1 [albendazole] the IC50 (T. muris; Trichuris muris, 24 h, read-out: T. muris IC50 μM (95% CI) 24 h) was > 300 µM and the IC50 (T. muris; Trichuris muris, 48 h, read-out: T. muris IC50 μM (95% CI) 48 h) was > 300 µM.

For O=C1NC(=O)/C(=C/c2ccc(-c3ccc(F)cc3O)o2)S1 [AS-252424], the “worm motility inhibition (in words)” value (T. muris) is listed as “excellent worm motility inhibition”, the “selectivity for PI3Kγ over PI3Kα” value (CK2α/PI3Kγ) is listed as 30 fold and the IC50 (CK2α/PI3Kγ; read-out: IC50 (dual inhibitor of CK2α/PI3Kγ)) is listed as 0.03 µM.

For CN1CCCN(C(=O)c2cccc(-c3ccc(C=C4C(=O)Nc5c(Cl)cccc54)o3)c2)CC1 [Compound 8], the CC50 (HepG2 cells) was 15.5 µM, the “fold increase in cytotoxicity (measured by CC50)” value (HepG2 cells; relative to CX-6258) was 2.4 fold and the “worm motility inhibition, SAR statement (in words)” value (T. muris) was “neither an increase nor decrease to activity”. For the same molecule, the IC50 (T. muris; [1]) was 42 µM, the IC50 (T. muris; [2]) was > 90 µM and the “worm motility inhibition, SAR statement (in words)” value (A. ceylanicum) was “hookworm selective; also recorded: neither an increase nor decrease to activity”. The IC50 (A. ceylanicum; [3]) was 40 µM and the IC50 (A. ceylanicum; [4]) was 21 µM.

In the case of O=C1NC(=O)/C(=C/c2cccc(C(F)(F)F)c2)S1 [SMI-4a], the motility inhibition (T. muris; @48 h (Figure 1B)) is reported as 71%.

For COCCc1ccc(OCC(O)CNC(C)C)cc1 (stereo not drawn) [metoprolol], the “Rank Papp” value (MDR1-MDCK II cells; MDCK-MDR1) was “high”, the recovery (in vitro; MDCK-MDR1) was 97.4% and the Papp A→B (MDR1 (P-gp)) was 25.6 ×10⁻⁶ cm/s.

For CC(C)C[C@H]1C(=O)O[C@H](Cc2ccc(N3CCOCC3)cc2)C(=O)N(C)[C@@H](CC(C)C)C(=O)O[C@H](C)C(=O)N(C)[C@@H](CC(C)C)C(=O)O[C@H](Cc2ccc(N3CCOCC3)cc2)C(=O)N(C)[C@@H](CC(C)C)C(=O)O[C@H](C)C(=O)N1C [emodepside], the IC50 (T. muris; [1]) was 0.0143 µM, the IC50 (T. muris; [2]) was 0.0345 µM and the IC50 (A. ceylanicum; [3]) was 0.0033 µM. It also gave an IC50 (A. ceylanicum; [4]) of 0.0011 µM.

For N[C@@H]1CCCN(c2c(/C=C3\SC(=O)NC3=O)cccc2-c2ccccc2)C1 [AZD1208], the “worm motility inhibition (in words)” value (T. muris) was “inactive”.

For C[C@H](NC(=O)c1c(N)nn2cccnc12)c1cc2cccc(C#Cc3cnn(C)c3)c2c(=O)n1-c1ccccc1 [IPI-549], the “worm motility inhibition (in words)” value (T. muris) was “did not show measurable inhibition of worm motility”.

With C[C@H]1O[C@@H](O[C@H]2[C@@H](O)C[C@H](O[C@H]3[C@@H](O)C[C@H](O[C@H]4CC[C@@]5(C)[C@H](CC[C@@H]6[C@@H]5C[C@@H](O)[C@]5(C)[C@@H](C7=CC(=O)OC7)CC[C@]65O)C4)O[C@@H]3C)O[C@@H]2C)C[C@H](O)[C@@H]1O [digoxin] the “Rank Papp” value (MDR1-MDCK II cells; MDR1-MDCK II cells) was “low”, the recovery (in vitro; MDCK-MDR1, mean solution recovery % A to B, MDR1-MDCK II cells) was 77.5% and the recovery (in vitro; MDCK-MDR1, mean solution recovery % B to A, MDR1-MDCK II cells) was 92.7%. The Papp A→B (MDR1 (P-gp)) was 0.151 ×10⁻⁶ cm/s, the Papp B→A (MDR1 (P-gp)) was 3.43 ×10⁻⁶ cm/s and the efflux ratio (MDR1 (P-gp)) was 22.8.

In the case of Cc1ccc2c(c1)C(=Cc1ccc(-c3cccc(C(=O)N4CCCN(C)CC4)c3)o1)C(=O)N2 [Compound 10], the “worm motility inhibition, SAR statement (in words)” value (T. muris) is reported as “inactivated the inhibition of both species” and the “worm motility inhibition, SAR statement (in words)” value (A. ceylanicum) is reported as “inactivated the inhibition of both species”.

With Cc1ccc(-c2csc3ncnc(SCCC(=O)O)c23)cc1 [TTP22] the “worm motility inhibition (in words)” value (T. muris) was “did not show measurable inhibition of worm motility”.

In the case of CN1CCCN(C(=O)c2cccc(-c3ccc(C=C4C(=O)Nc5ccc(N)cc54)o3)c2)CC1 [Compound 7], the “worm motility inhibition, SAR statement (in words)” value (T. muris) is reported as “complete loss of activity; also recorded: inactive against both species” and the “worm motility inhibition, SAR statement (in words)” value (A. ceylanicum) is reported as “not against A. ceylanicum; also recorded: inactive against both species”.

With CC(C)(C)NCC(O)COc1cccc2c1CC(O)C(O)C2 (stereo not drawn) [nadolol] the “Rank Papp” value (MDR1-MDCK II cells; MDCK-MDR1) was “low”, the recovery (in vitro; MDCK-MDR1) was 83.1% and the Papp A→B (MDR1 (P-gp)) was 0.05 ×10⁻⁶ cm/s.

For CN1CCC(CNc2ccc3ncc(-c4cccc(OC(F)(F)F)c4)n3n2)CC1 [SGI-1776], the “worm motility inhibition (in words)” value (T. muris) was “excellent inhibition”.

In the case of O=C(O)c1ccc2c(c1)nc(Nc1cccc(Cl)c1)c1ccncc12 [CX-4945], the “worm motility inhibition (in words)” value (T. muris) is reported as “did not show measurable inhibition of worm motility”.

In the case of N#Cc1c(-c2ccccc2)cc(-c2cc(Br)ccc2O)[nH]c1=O [TCS-PIM1], the “worm motility inhibition (in words)” value (T. muris) is reported as “excellent inhibition” and the motility inhibition (T. muris; relative to DMSO controls) is reported as 100%.
